Columns and labels:
CD38 expression [1] = experiment: FACS analysis of CD38 expression in LKB1 mutant tumors after EP300 inhibitor treatment; type: cell-based; settings: LKB1 mutant lung cancer tumors, FIG. 6A, 6B
Excerpt: (§1) FIG. 6. EP300 inhibition suppresses LKB1 mutant tumor progression. (A), EP300 inhibitors CCS1477 and A485 suppresses CD38 expression in LKB1 mutant tumors. (B), Representative FACS analysis of CD38 expression after drug treatment. (C), Tumor volume changes of KL tumors after indicated EP300 inhibitors treatment. (D). Tumor growth curve of KL tumors treated with CCS1477 or A485.
(§2) Since LKB1/SIK suppresses CD38 expression through CTRC/EP300/CREB complex, we further tested inhibition of CD38 via EP300 inhibitors, including CCS1477 and A485, in LKB1 mutant lung cancer tumors.

[2] = test system: KL tumors (LKB1 mutant lung cancer tumors); experiment: KL tumor growth after EP300 inhibitor treatment; type: in vivo; settings: FIG. 6C, 6D
Excerpt: as §1, §2

CD38 expression [3] = experiment: Flow cytometric analysis of CD38 expression after SIK inhibitor treatment in LKB1 WT mouse cancer cell lines; type: cell-based; settings: LKB1 WT mouse lung cancer (KPC), colon cancer (CT26, MC38) and pancreatic cancer (KP1) lines; flow cytometry; FIG. 3
Excerpt: FIG. 3. SIK inhibitor increases upregulation of CD38 in LKB1 wildtype tumors. Flow cytometric analysis of CD38 expression changes after SIK inhibitor YKL-05-099 treatment in lung cancer (KPC) (A), and colon cancer (CT26, MC38) or pancreatic cancer (KP1) lines (B) at the indicated time points and concentration.
In line with the results of the LKB1 rescue studies, CRISPR-mediated knockout of Lkb1 in murine KP NSCLC cells led to increased cell surface expression of CD38 (FIG. 2A, 2B). We subsequently tested the impact of knockout of Sik1, Sik2 and Sik3, alone or in combination. We observed prominent increases in CD38 expression at the cell surface in KP cells upon inactivation of Sik1 or of all three SIK family members, but not to the level of CD38 in KP sgLkb1 cells (FIG. 2A, 2B). Without intending to be constrained by any particular theory, it is considered this indicates other factors other than SIK1/2/3 downstream of LKB1, might also contribute to the suppression of CD38 expression.

A549 xenograft tumor = A549 xenograft tumor growth in nu/nu mice; type: in vivo, mouse; settings: LKB1 mutant A549 xenograft, 12.5 mg/kg once per week from about 100 mm^3, vs hIgG1, FIG. 5
Experimental: (§3) FIG. 5. Daratumumab induces killing of CD38 positive lung cancer. […] A549 (A-C) or HCC44 (D-F) xenograft tumor growth in response to daratumumab treatment. For each mouse, 3×10^6 A549 cells (A) or 5×10^5 HCC44 (D) were implanted into nu/nu mice subcutaneously. Daratumumab or hIgG1 (12.5 mg/kg, once per week) was dosed when tumor size reached 100 mm^3. Growth curve of A549 cells (A) or HCC44 (D) after daratumumab treatment. B-C, Individual mouse tumor growth curve for A549 xenografts treated with either hIgG1 (B) or Daratumumab (C) shown in panel A. (E-F), Individual mouse tumor growth curve for HCC44 xenograft treated with either hIgG1 (E) or Daratumumab (F) shown in panel D.
(§4) To study the effects of daratumumab in vivo, we implanted the LKB1 mutant A549 and HCC44 cell lines into athymic nude (nu/nu) mice to generate tumor xenografts. Daratumumab is a human IgG1, which can be recognized by mouse FcγRs on effector cells, resulting in ADCC induced between daratumumab with mouse NK cells through crosstalk, enabling evaluation of NK cell-mediated tumor cell killing in vivo. When tumors reached approximately 100 mm^3 in volume, mice were treated with daratumumab once weekly.

HCC44 xenograft tumor = HCC44 xenograft tumor growth in nu/nu mice; type: in vivo, mouse; settings: LKB1 mutant HCC44 xenograft, 12.5 mg/kg once per week from about 100 mm^3, vs hIgG1, FIG. 5
Experimental: as §3, §4

Compound: CNC(=O)Nc1ccc2c(c1)CC[C@@]21OC(=O)N(CC(=O)N(Cc2ccc(F)cc2)[C@@H](C)C(F)(F)F)C1=O [A485]
- CD38 expression on the tumor cells (CD38 expression [1]): decrease of CD38 expression
- tumor growth in vivo [2]: reduced tumor growth

Compound: CO[C@H]1CC[C@H](n2c([C@@H]3CCCC(=O)N3c3ccc(F)c(F)c3)nc3cc(-c4c(C)noc4C)ccc32)CC1 [CCS1477]
- CD38 expression on the tumor cells (CD38 expression [1]): decrease of CD38 expression
- tumor growth in vivo [2]: reduced tumor growth

Compound: COc1ccc(N2C(=O)N(c3c(C)cccc3Cl)Cc3cnc(Nc4ccc(C5CCN(C)CC5)cc4OC)nc32)nc1 [YKL-05-099]
- CD38 expression change (CD38 expression [3]): upregulated CD38

Compound: daratumumab: first approved antibody against CD38, a fully human IgG1-κ monoclonal antibody
- tumor growth (A549 xenograft tumor): significant reduction in tumor growth
- tumor growth (HCC44 xenograft tumor): significant reduction in tumor growth

From patent US20240247074A1, “THERAPEUTIC STRATEGY FOR NON-SMALL CELL LUNG CANCER AND OTHER CANCERS” (New York University, priority 2023, published 2024)
